# PubChem BioAssay AID2772 (The Scripps Research Institute Molecular Screening Center, 2010)
# The source made the active and inactive calls. How the calls were made is not given here.
# Target: Signal transducer and activator of transcription 1-alpha/beta (Homo sapiens) (UniProt P42224)
# Assay: inhibition of STAT1-driven luciferase signal – cell-based, luminescence, NIH 3T3, dose response, late-stage follow-up (AID 2772)
# Conditions: NIH 3T3 fibroblasts, STAT1 luciferase reporter
# Chain of Signal transducer and activator of transcription 1-alpha/beta (Homo sapiens) (P42224 whole entry, looked up): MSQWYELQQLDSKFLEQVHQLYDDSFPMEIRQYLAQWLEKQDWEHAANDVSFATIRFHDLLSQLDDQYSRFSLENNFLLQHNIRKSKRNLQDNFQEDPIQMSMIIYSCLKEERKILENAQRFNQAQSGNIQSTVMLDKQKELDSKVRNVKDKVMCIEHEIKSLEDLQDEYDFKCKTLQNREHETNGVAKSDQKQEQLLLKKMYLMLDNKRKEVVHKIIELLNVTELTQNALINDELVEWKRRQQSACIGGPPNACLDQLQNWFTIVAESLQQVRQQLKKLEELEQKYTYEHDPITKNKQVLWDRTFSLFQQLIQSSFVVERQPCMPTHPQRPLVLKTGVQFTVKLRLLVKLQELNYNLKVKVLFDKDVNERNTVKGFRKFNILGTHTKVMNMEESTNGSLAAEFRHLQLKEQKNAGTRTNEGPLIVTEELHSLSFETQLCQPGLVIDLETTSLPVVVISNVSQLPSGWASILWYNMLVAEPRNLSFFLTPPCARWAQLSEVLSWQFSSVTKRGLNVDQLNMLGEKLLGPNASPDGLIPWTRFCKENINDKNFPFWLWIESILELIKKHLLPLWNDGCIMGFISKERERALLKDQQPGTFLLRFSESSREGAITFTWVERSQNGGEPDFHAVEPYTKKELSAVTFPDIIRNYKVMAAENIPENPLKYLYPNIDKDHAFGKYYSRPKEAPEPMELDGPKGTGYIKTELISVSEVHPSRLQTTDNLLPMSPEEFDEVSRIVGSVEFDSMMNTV
row,SMILES,IC50
1,CN1CCN(C(=O)c2ccc(-n3c(=S)[nH]c4ccccc4c3=O)cc2)CC1,> 55.7 µM (inactive)
2,COc1ccc(C)cc1NC(=O)C(c1ccccc1)N1CCN(S(=O)(=O)c2ccc(F)cc2)CC1 (centres undefined),> 55.7 µM (inactive)
3,CC(=O)c1ccc(S(=O)(=O)N2CCN(C(C(=O)Nc3ccc(C)cc3)c3ccccc3)CC2)cc1 (centres undefined),> 55.7 µM (inactive)
4,O=C(c1ccc(-n2c(=S)[nH]c3ccccc3c2=O)cc1)N1CCN(C2CCCCC2)CC1,> 55.7 µM (inactive)
5,CN(C)C(=O)c1nn(-c2ccc(F)cc2)c(=O)c2ccccc12,> 55.7 µM (inactive)
6,CCC(C(=O)Nc1ccccc1)N1CCN(S(=O)(=O)c2ccc3c(c2)CCC3)CC1 (centres undefined),> 55.7 µM (inactive)
7,O=C(OCC1CCCCC1)c1nn(-c2ccccc2)c(=O)c2ccccc12,> 55.7 µM (inactive)
8,Cc1ccc2oc(=O)cc(CSc3nc(-c4ccccc4)c4ccccc4n3)c2c1,> 55.7 µM (inactive)
9,O=C(Nc1ccc(F)cc1)C(c1ccccc1)N1CCN(S(=O)(=O)c2ccccc2)CC1 (centres undefined),> 55.7 µM (inactive)
10,CCOc1ccc2oc(=O)cc(CSc3nc4ccccc4c(=O)[nH]3)c2c1,> 55.7 µM (inactive)
11,CC(C(=O)Nc1ccc(F)c(F)c1)N1CCN(S(=O)(=O)c2ccc(C(F)(F)F)cc2)CC1 (centres undefined),> 55.7 µM (inactive)
12,CNC(=O)c1nn(-c2ccc(F)cc2)c(=O)c2ccccc12,> 55.7 µM (inactive)
13,O=C(Nc1ccc(F)cc1)C(c1ccccc1)N1CCN(S(=O)(=O)c2ccc3ccccc3c2)CC1 (centres undefined),> 55.7 µM (inactive)
14,NC(=O)c1ccc(S(=O)(=O)N2CCN(C(C(=O)Nc3ccc(F)cc3)c3ccccc3)CC2)cc1 (centres undefined),> 55.7 µM (inactive)
15,O=C(c1ccc(-n2c(=S)[nH]c3ccccc3c2=O)cc1)N1CCN(C(=O)c2ccco2)CC1,> 55.7 µM (inactive)
16,O=C(O)c1nn(-c2ccc(F)cc2)c(=O)c2ccccc12,> 55.7 µM (inactive)
17,O=C(Nc1ccc(Cl)c(C(F)(F)F)c1)C(c1ccccc1)N1CCN(S(=O)(=O)c2ccccc2)CC1 (centres undefined),> 55.7 µM (inactive)
18,CCOC(=O)c1ccc(S(=O)(=O)N2CCN(C(C(=O)Nc3ccc(OC)c(Cl)c3)c3ccccc3)CC2)cc1 (centres undefined),> 55.7 µM (inactive)

row,SMILES,IC50
1,COc1cccc(NC(=O)C(c2ccccc2)N2CCN(S(=O)(=O)c3ccc(C)cc3)CC2)c1 (centres undefined),inactive
2,Cc1ccc(-n2nc(C(=O)O)c3ccccc3c2=O)cc1Cl,inactive
3,CN(C)Cc1nc2ccccc2c(=O)n1Cc1nc(C(C)(C)C)cs1,inactive
4,Cc1ccc(C)c(S(=O)(=O)N2CCN(C(C(=O)Nc3ccc(F)cc3)c3ccccc3)CC2)c1 (centres undefined),> 55.7 µM (inactive)
5,COC(=O)c1nn(-c2ccc(F)cc2)c(=O)c2ccccc12,> 55.7 µM (inactive)
6,O=C(Nc1ccc(F)cc1)C(c1ccccc1)N1CCN(S(=O)(=O)c2ccc3c(c2)OCCO3)CC1 (centres undefined),> 55.7 µM (inactive)
7,Cc1ccc(NC(=O)C(c2ccccc2)N2CCN(S(=O)(=O)c3ccccc3)CC2)cc1 (centres undefined),> 55.7 µM (inactive)
8,Cc1ccc(C)c(NC(=O)C(c2ccccc2)N2CCN(S(=O)(=O)c3ccccc3C#N)CC2)c1 (centres undefined),> 55.7 µM (inactive)
9,O=c1cc(CSc2nc3ccccc3c(=O)[nH]2)c2ccc(O)cc2o1,inactive
10,Cc1cc2oc(=O)cc(CSc3nc4ccccc4c(=O)[nH]3)c2cc1Cl,> 55.7 µM (inactive)
11,CCOc1ccccc1NC(=O)C(c1ccccc1)N1CCN(S(=O)(=O)c2ccc(F)c(F)c2F)CC1 (centres undefined),> 55.7 µM (inactive)
12,Cc1ccc(-n2nc(C(=O)O)c3ccccc3c2=O)cc1C,> 55.7 µM (inactive)
13,CCOC(=O)N1CCN(C(=O)c2ccc(-n3c(=S)[nH]c4ccccc4c3=O)cc2)CC1,inactive
14,N#Cc1ccc(S(=O)(=O)N2CCN(C(C(=O)Nc3ccc(F)cc3)c3ccccc3)CC2)cc1 (centres undefined),> 55.7 µM (inactive)
15,CC(C(=O)Nc1ccccc1)N1CCN(S(=O)(=O)c2ccccc2)CC1 (centres undefined),> 55.7 µM (inactive)
16,CCOC(=O)Nc1ccc2c(CSc3nc4ccccc4c(=O)[nH]3)cc(=O)oc2c1,> 55.7 µM (inactive)
17,O=C(Nc1ccc(F)cc1)C(c1ccccc1)N1CCN(C(=O)c2ccccc2)CC1 (centres undefined),> 55.7 µM (inactive)
18,COc1ccc(N2CCN(C(=O)c3ccc(-n4c(=S)[nH]c5ccccc5c4=O)cc3)CC2)cc1,> 55.7 µM (inactive)

# More lines, now with the values ahead:
row,IC50,SMILES
1,> 18.6 µM (inactive),CN(C)Cc1nc2ccccc2c(=O)n1Cc1nc(-c2cccc([N+](=O)[O-])c2)cs1
2,inactive,O=C1c2ccccc2N/C(=C\N2CCOCC2)N1Cc1nc(-c2ccc(F)c(F)c2)cs1
3,inactive,CN1CCN(Cc2nc3ccccc3c(=O)n2Cc2nc(-c3cccc([N+](=O)[O-])c3)cs2)CC1
4,> 55.7 µM (inactive),O=C(c1ccc(-n2c(=S)[nH]c3ccccc3c2=O)cc1)N1CCN(c2ccccc2)CC1
5,> 55.7 µM (inactive),N#Cc1ccccc1S(=O)(=O)N1CCN(C(C(=O)Nc2ccc(F)cc2)c2ccccc2)CC1 (centres undefined)
6,> 18.6 µM (inactive),CCC(C)c1ccc(-c2csc(CN3C(=O)c4ccccc4N/C3=C\N3CCN(C)CC3)n2)cc1 (centres undefined)
7,> 18.6 µM (inactive),CCOc1ccc(-c2csc(Cn3c(CN4CCN(C)CC4)nc4ccccc4c3=O)n2)cc1
8,inactive,O=C1c2ccccc2N/C(=C\N2CCOCC2)N1Cc1nc(-c2ccccc2F)cs1
9,> 55.7 µM (inactive),COc1cc2c(cc1OC)C(=O)N(Cc1coc(-c3ccccc3)n1)C(=CN1CCOCC1)N2
10,inactive,CN1CCN(Cc2nc3ccccc3c(=O)n2Cc2nc(-c3ccccc3F)cs2)CC1
11,> 55.7 µM (inactive),CN(Cc1ccccc1N1CCCC1)C(=O)c1nn(-c2ccccc2)c(=O)c2ccccc12
12,inactive,COc1cccc(-c2csc(Cn3c(CN4CCOCC4)nc4ccccc4c3=O)n2)c1
13,> 55.7 µM (inactive),COc1cc2c(cc1OC)C(=O)N(Cc1cc(-c3ccccc3OC)no1)C(=CN1CCOCC1)N2
14,inactive,O=c1c2ccccc2nc(CN2CCOCC2)n1Cc1nc(-c2ccc[nH]2)cs1
15,> 55.7 µM (inactive),O=C(c1ccc(-n2c(=S)[nH]c3ccccc3c2=O)cc1)N1CCN(c2ccc(F)cc2)CC1
16,> 55.7 µM (inactive),COc1cc2c(cc1OC)C(=O)N(Cc1nnc(-c3ccc(Cl)cc3)o1)C(=CN1CCOCC1)N2
17,> 55.7 µM (inactive),CN1CCN(C=C2Nc3ccccc3C(=O)N2Cc2nc(C34CC5CC(CC(C5)C3)C4)cs2)CC1
18,> 55.7 µM (inactive),C=C1NN(c2ccc(C(=O)N3CCC(Cc4ccccc4)CC3)cc2)C(=O)c2ccccc21
